# Source: patent US20250084074A1, “SUBSTITUTED HETEROCYCLES AS HSET INHIBITORS” (MERCK PATENT GMBH, priority 2022, published 2025)
# Target: HSET full length protein (Homo sapiens (Human), UniProt Q9BW19)
# Assay: HSET ADP-Glo Assay S - 3 μM ATP
# Format: biochemical
# Conditions: 5 nM HSET, 70 μg/mL microtubule, 80 min at rt, read-out: COMBINED HSET ADP GLO IC50
# Summary of the method: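 ADP-Glo luminescence read-out: ATPase reaction at 3 μM ATP, 80 min at room temperature, after a 10 min compound preincubation. Enzyme was full-length human HSET at 5 nM, stimulated by 70 μg/mL paclitaxel-stabilised bovine microtubules in HEPES pH 6.8 buffer with MgCl2, EGTA, Triton X-100 and DTT.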
# HSET full length protein, sequence (Q9BW19 whole entry): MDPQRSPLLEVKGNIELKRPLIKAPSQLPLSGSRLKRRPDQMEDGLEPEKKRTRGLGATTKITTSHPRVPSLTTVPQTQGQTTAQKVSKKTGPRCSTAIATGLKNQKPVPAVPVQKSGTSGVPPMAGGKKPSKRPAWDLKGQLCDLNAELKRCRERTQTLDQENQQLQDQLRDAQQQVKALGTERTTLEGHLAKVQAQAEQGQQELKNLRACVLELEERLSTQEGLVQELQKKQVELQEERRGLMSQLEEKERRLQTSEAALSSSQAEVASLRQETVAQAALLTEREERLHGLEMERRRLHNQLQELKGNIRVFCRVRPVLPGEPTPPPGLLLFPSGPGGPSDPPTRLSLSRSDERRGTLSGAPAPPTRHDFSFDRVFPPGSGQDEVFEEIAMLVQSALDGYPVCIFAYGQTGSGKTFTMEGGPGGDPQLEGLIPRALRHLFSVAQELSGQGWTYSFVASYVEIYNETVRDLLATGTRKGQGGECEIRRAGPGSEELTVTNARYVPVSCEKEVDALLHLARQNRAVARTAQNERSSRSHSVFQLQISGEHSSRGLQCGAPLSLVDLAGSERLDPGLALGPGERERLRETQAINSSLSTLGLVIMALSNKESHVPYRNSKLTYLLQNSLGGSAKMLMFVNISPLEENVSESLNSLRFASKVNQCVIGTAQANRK
row,IC50,Compound
1,0.27 µM,"Cc1nc(-c2ccc3ccnc(N[C@H]4C[C@@](C)(C(=O)Nc5nc(C)c(C(=O)OC(C)(C)C)s5)C4)c3c2)no1 [Example 224, tert-Butyl 4-methyl-2-((1s,3s)-1-methyl-3-((7-(5-methyl-1,2,4-oxadiazol-3-yl)isoquinolin-1-yl)amino)cyclobutane-1-carboxamido)thiazole-5-carboxylate]"
2,1.66 µM,"Cc1nc(-c2ccc3ccnc(N[C@@H]4CCN(C(=O)Nc5nc(C)c(C(=O)OC(C)(C)C)s5)C4)c3c2)no1 [Example 225, tert-Butyl 4-methyl-2-[[(3R)-3-[[7-(5-methyl-1,2,4-oxadiazol-3-yl)-1-isoquinolyl]amino]pyrrolidine-1-carbonyl]amino]thiazole-5-carboxylate]"
3,0.012 µM,"Cc1nc(-c2ccc3ccnc(N[C@H]4CCN(C(=O)Nc5nc(C)c(C(=O)OC(C)(C)C)s5)C4)c3c2)no1 [Example 226, tert-Butyl 4-methyl-2-[[(3S)-3-[[7-(5-methyl-1,2,4-oxadiazol-3-yl)-1-isoquinolyl]amino]pyrrolidine-1-carbonyl]amino]thiazole-5-carboxylate]"
4,0.088 µM,"Cc1nc(-c2ccc3ccnc(N[C@H]4CCN(C(=O)N(C)c5nc(C)c(C(=O)OC(C)(C)C)s5)C4)c3c2)no1 [Example 227, tert-Butyl 4-methyl-2-[methyl-[(3S)-3-[[7-(5-methyl-1,2,4-oxadiazol-3-yl)-1-isoquinolyl]amino]pyrrolidine-1-carbonyl]amino]thiazole-5-carboxylate]"
5,0.086 µM,"Cc1nc(-c2cccc(C(=O)NC3CN(C(=O)Nc4nc(C)c(C(=O)OC(C)(C)C)s4)C3)c2)no1 [Example 228, tert-Butyl 4-methyl-2-[[3-[[3-(5-methyl-1,2,4-oxadiazol-3-yl)benzoyl]amino]azetidine-1-carbonyl]amino]thiazole-5-carboxylate]"
6,0.052 µM,"Cc1nc(-c2cccc(C(=O)NC3CN(C(=O)N(C)c4nc(C)c(C(=O)OC(C)(C)C)s4)C3)c2)no1 [Example 229, tert-Butyl 4-methyl-2-[methyl-[3-[[3-(5-methyl-1,2,4-oxadiazol-3-yl)benzoyl]amino]azetidine-1-carbonyl]amino]thiazole-5-carboxylate]"
7,0.002 µM,"Cc1nc(-c2ccc3ccnc(NC4CN(C(=O)Nc5nc(C)c(C(=O)OC(C)(C)C)s5)C4)c3c2)no1 [Example 230, tert-Butyl 4-methyl-2-[[3-[[7-(5-methyl-1,2,4-oxadiazol-3-yl)-1-isoquinolyl]amino]azetidine-1-carbonyl]amino]thiazole-5-carboxylate]"
8,0.005 µM,"Cc1nc(-c2ccc3ccnc(NC4CN(C(=O)N(C)c5nc(C)c(C(=O)OC(C)(C)C)s5)C4)c3c2)no1 [Example 231, tert-Butyl 4-methyl-2-[methyl-[3-[[7-(5-methyl-1,2,4-oxadiazol-3-yl)-1-isoquinolyl]amino]azetidine-1-carbonyl]amino]thiazole-5-carboxylate]"
9,0.044 µM,"Cc1nc(-c2ccc3ccnc(NC4CN(C(=O)Nc5nc(C)c(C(C)(C)C)s5)C4)c3c2)no1 [Example 232, N-(5-(tert-butyl)-4-methylthiazol-2-yl)-3-((7-(5-methyl-1,2,4-oxadiazol-3-yl)isoquinolin-1-yl)amino)azetidine-1-carboxamide]"
10,0.03 µM,"CCCOC(=O)c1sc(N(C)C(=O)CCNC(=O)c2cc(Cl)cc(-c3noc(C)n3)c2)nc1C [Example 233, Propyl 2-(3-(3-chloro-5-(5-methyl-1,2,4-oxadiazol-3-yl)benzamido)-N-methylpropanamido)-4-methylthiazole-5-carboxylate]"
11,2.1 µM,"CCCOC(=O)c1sc(NC(=O)[C@@H]2C[C@H](NC(=O)c3cccc(-c4noc(C)n4)c3)CN2C)nc1C [Example 234, Propyl 4-methyl-2-((2S,4S)-1-methyl-4-(3-(5-methyl-1,2,4-oxadiazol-3-yl)benzamido)pyrrolidine-2-carboxamido)thiazole-5-carboxylate]"
12,6.78 µM,"CCCOC(=O)c1sc(NC(=O)[C@H]2C[C@@H](NC(=O)c3cccc(-c4noc(C)n4)c3)CN2C)nc1C [Example 235, Propyl 4-methyl-2-((2R,4R)-1-methyl-4-(3-(5-methyl-1,2,4-oxadiazol-3-yl)benzamido)pyrrolidine-2-carboxamido)thiazole-5-carboxylate]"
13,2.84 µM,"Cc1nc(-c2ccc3ccnc(N[C@H]4C[C@@H](C(=O)Nc5nc(C)c(C(C)(C)C)s5)N(C)C4)c3c2)no1 [Example 236, (2S,4S)-N-(5-(tert-butyl)-4-methylthiazol-2-yl)-1-methyl-4-((7-(5-methyl-1,2,4-oxadiazol-3-yl)isoquinolin-1-yl)amino)pyrrolidine-2-carboxamide]"
14,0.1 µM,"CCCOC(=O)c1sc(NC(=O)[C@@H]2C[C@H](Nc3nccc4ccc(-c5noc(C)n5)cc34)CN2C)nc1C [Example 237, Propyl 4-methyl-2-((2S,4S)-1-methyl-4-((7-(5-methyl-1,2,4-oxadiazol-3-yl)isoquinolin-1-yl)amino)pyrrolidine-2-carboxamido)thiazole-5-carboxylate]"
15,6.74 µM,"CCCCCc1cc(NC(=O)[C@@H]2C[C@H](Nc3nccc4ccc(-c5noc(C)n5)cc34)CN2C)nn1C [Example 238, (2S,4S)-1-methyl-4-((7-(5-methyl-1,2,4-oxadiazol-3-yl)isoquinolin-1-yl)amino)-N-(1-methyl-5-pentyl-1 H-pyrazol-3-yl)pyrrolidine-2-carboxamide]"
16,0.119 µM,"CCCOC(=O)c1sc(NC(=O)[C@@H]2C[C@H](Nc3nccc4ccc(-c5noc(C)n5)cc34)CN2)nc1C [Example 239, Propyl 4-methyl-2-((2S,4S)-4-((7-(5-methyl-1,2,4-oxadiazol-3-yl)isoquinolin-1-yl)amino)pyrrolidine-2-carboxamido)thiazole-5-carboxylate]"
17,0.098 µM,"CCCOC(=O)c1sc(C(=O)N2CC[C@H](NC(=O)c3cccc(-c4noc(C)n4)c3)C2)nc1C [Example 240, Propyl (S)-4-methyl-2-(3-(3-(5-methyl-1,2,4-oxadiazol-3-yl)benzamido)pyrrolidine-1-carbonyl)thiazole-5-carboxylate]"
18,0.03 µM,"CCCOC(=O)c1sc(C(=O)N2CC[C@H](NC(=O)c3cccc(-c4nnn(C)n4)c3)C2)nc1C [Example 242, Propyl 4-methyl-2-[(3S)-3-[[3-(2-methyltetrazol-5-yl)benzoyl]amino]pyrrolidine-1-carbonyl]thiazole-5-carboxylate]"
19,0.011 µM,"CCCOC(=O)c1sc(C(=O)N2CC[C@H](Nc3nccc4ccc(-c5noc(C)n5)cc34)C2)nc1C [Example 243, Propyl (S)-4-methyl-2-(3-((7-(5-methyl-1,2,4-oxadiazol-3-yl)isoquinolin-1-yl)amino)pyrrolidine-1-carbonyl)thiazole-5-carboxylate]"
20,0.608 µM,"CCCOC(=O)c1sc(C(=O)N2CC[C@@H](Nc3nccc4ccc(-c5noc(C)n5)cc34)C2)nc1C [Example 244, Propyl (R)-4-methyl-2-(3-((7-(5-methyl-1,2,4-oxadiazol-3-yl)isoquinolin-1-yl)amino)pyrrolidine-1-carbonyl)thiazole-5-carboxylate]"
21,7.47 µM,"CCCOC(=O)c1cc(C(=O)N2CC[C@H](Nc3nccc4ccc(-c5noc(C)n5)cc34)C2)nn1C [Example 245, Propyl (S)-1-methyl-3-(3-((7-(5-methyl-1,2,4-oxadiazol-3-yl)isoquinolin-1-yl)amino)pyrrolidine-1-carbonyl)-1 H-pyrazole-5-carboxylate]"
